Results published in PubChem BioAssay AID1195 (EPA DSSTox, 2008).
Starred links: 1 amine or outer side, 2 acyl side, 3 side chain; linkers in the order of their positions; H or OH if unused. Positions of bridges follow the written chain, without caps; N, C: chain ends. Non-standard residues stand in square brackets, D forms with d. Residues, ends and D or L forms follow the SMILES beside them. *: point of attachment. X1 = NC1=N[C@@H]([C@H](N[*:1])C(=O)[*:2])C[C@H](O)N1; ΔAla(Z-3-ureido) = NC(=O)N/C=C(\N)C(=O)O; β3hOrn = NCCC[C@H](N)CC(=O)*; Dap = NC[C@H](N)C(=O)O

System: human maximum recommended daily dose, FDA database
Assay: DSSTox (FDAMDD) FDA Maximum (Recommended) Daily Dose Database
Conditions: stronger effect = lower value
How it was run: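 MRDD values come from clinical trials with daily oral dosing, usually for 3–12 months, for the average adult, in mg/day converted to mg/kg-bw/day assuming 60 kg. Antineoplastic mg/m2 doses are divided by 37. Activity score maps log10(1/MRDD mmol) onto 1–100.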

[1] = TherapeuticCategory: anticholinergic
[2] = TherapeuticCategory: antineoplastic
[3] = TherapeuticCategory: antibacterial
[4] = TherapeuticCategory: progestogen
[5] = TherapeuticCategory: antihypertensive
[6] = TherapeuticCategory: anxiolytic
[7] = TherapeuticCategory: skeletal muscle relaxant
[8] = TherapeuticCategory: cardiotonic
[9] = TherapeuticCategory: diagnostic aid
[10] = TherapeuticCategory: antidiabetic
[11] = TherapeuticCategory: antidepressant
[12] = TherapeuticCategory: antihistaminic
[13] = TherapeuticCategory: diuretic, antihypertensive

CC(C)(C)NCC(O)COc1ccccc1C#N (configuration not stated)
maximum recommended daily dose (mmol/kg-bw/day) (TherapeuticCategory: antihypertensive, antianginal, antiarrhythmic): 0.00269

C[C@]12CC[C@H](O)CC1=CC[C@@H]1[C@@H]2CC[C@]2(C)C(=O)CC[C@@H]12
maximum recommended daily dose (mmol/kg-bw/day) (TherapeuticCategory: androgen): 0.0115

CN1CCCN=C1COC(=O)C(O)(c1ccccc1)C1CCCCC1 (configuration not stated)
maximum recommended daily dose (mmol/kg-bw/day) [1]: 0.00145

COc1cc(NS(C)(=O)=O)ccc1Nc1c2ccccc2nc2ccccc12
maximum recommended daily dose (mmol/kg-bw/day) [2]: 0.00823

OC[C@H]1O[C@@H](n2cnc3c2NC=NC[C@H]3O)C[C@@H]1O
maximum recommended daily dose (mmol/kg-bw/day) [2]: 0.000249

CC[C@H]1OC(=O)[C@H](C)[C@@H](O[C@H]2C[C@@](C)(OC)[C@@H](O)[C@H](C)O2)C(C)[C@@H](O[C@@H]2O[C@H](C)C[C@H](N(C)C)[C@H]2O)[C@](C)(OC)C[C@@H](C)C(=O)[C@H](C)[C@@H](O)[C@]1(C)O (some centres not stated)
maximum recommended daily dose (mmol/kg-bw/day) [3]: 0.0111

CCN(CC)CCOC(=O)c1ccc(N)cc1Cl
maximum recommended daily dose (mmol/kg-bw/day) (TherapeuticCategory: local anesthetic): 0.0308

CCS(=O)(=O)CCn1c([N+](=O)[O-])cnc1C
maximum recommended daily dose (mmol/kg-bw/day) (TherapeuticCategory: antiprotozoal, antiamebic): 0.135

C[C@H]1[C@H](NC(=O)/C(=N\OC(C)(C)C(=O)O)c2csc(N)n2)C(=O)N1S(=O)(=O)O
maximum recommended daily dose (mmol/kg-bw/day) [3]: 0.305

CCCCCCCCCCC(=O)O[C@H]1CC[C@H]2[C@@H]3CCc4cc(O)ccc4[C@H]3CC[C@]12C
maximum recommended daily dose (mmol/kg-bw/day) (TherapeuticCategory: estrogen): 0.00113

CCN(CC)CCNC(=O)c1cc(S(C)(=O)=O)ccc1OC
maximum recommended daily dose (mmol/kg-bw/day) (TherapeuticCategory: antidyskinetic): 0.0203

CCC(=O)Oc1ccc2c(c1)CC[C@@H]1[C@@H]2CC[C@]2(C)[C@@H](OC(=O)CC)CC[C@@H]12
maximum recommended daily dose (mmol/kg-bw/day) (TherapeuticCategory: estrogen): 0.0013

C=C1CC[C@@]2(O)[C@H]3Cc4ccc(O)c5c4[C@@]2(CCN3CC2CC2)[C@H]1O5
maximum recommended daily dose (mmol/kg-bw/day) (TherapeuticCategory: narcotic antagonist): 0.00245

C[N+]12CCC(CC1)C(OC(=O)C(O)(c1ccccc1)c1ccccc1)C2 (configuration not stated)
maximum recommended daily dose (mmol/kg-bw/day) [1]: 0.00077

C#C[C@]1(O)CC[C@H]2[C@@H]3CCC4=CC(=O)CC[C@]4(C)[C@H]3CC[C@@]21C
maximum recommended daily dose (mmol/kg-bw/day) [4]: 0.00534

N[C@@H](Cc1c[nH]c2ccccc12)C(=O)O
maximum recommended daily dose (mmol/kg-bw/day) (TherapeuticCategory: antidepressant, nutrient): 0.49

CCCCc1oc2ccccc2c1C(=O)c1cc(I)c(OCCN(CC)CC)c(I)c1
maximum recommended daily dose (mmol/kg-bw/day) (TherapeuticCategory: antiarrhythmic, antianginal): 0.0414

COc1cc(C[C@@H]2NCCc3cc(O)c(O)cc32)cc(OC)c1OC
maximum recommended daily dose (mmol/kg-bw/day) (TherapeuticCategory: bronchodilator): 0.000869

C[C@H](CSC(=O)[C@@H](C)NC(=O)C1CCCCC1)C(=O)N1CCC[C@H]1C(=O)O
maximum recommended daily dose (mmol/kg-bw/day) [5]: 0.00251

Nc1ncn([C@@H]2O[C@H](CO)[C@@H](O)[C@H]2O)c(=O)n1
maximum recommended daily dose (mmol/kg-bw/day) [2]: 0.0831

N=C(N)N1CCc2ccccc2C1
maximum recommended daily dose (mmol/kg-bw/day) [5]: 0.0285

COc1cccc(OC)c1C(=O)N[C@@H]1C(=O)N2[C@@H]1SC(C)(C)[C@@H]2C(=O)O
maximum recommended daily dose (mmol/kg-bw/day) [3]: 0.526

CC(=O)Oc1ccc(C(=C2CCCCC2)c2ccc(OC(C)=O)cc2)cc1
maximum recommended daily dose (mmol/kg-bw/day) (TherapeuticCategory: gonad stimulating): 0.0183

CCc1cc2c(s1)N(C)C(=O)CN=C2c1ccccc1Cl
maximum recommended daily dose (mmol/kg-bw/day) [6]: 0.00314

O=C(O)CCCc1ccc(N(CCCl)CCCl)cc1
maximum recommended daily dose (mmol/kg-bw/day) [2]: 0.000657

Cc1ccccc1OCC(O)CO (configuration not stated)
maximum recommended daily dose (mmol/kg-bw/day) [7]: 0.274

O=C(O)C(Cl)Cl
maximum recommended daily dose (mmol/kg-bw/day) (TherapeuticCategory: caustic, keratolytic, topical astringent): 0.517

Cc1[nH]c(=O)c(C#N)cc1-c1ccncc1
maximum recommended daily dose (mmol/kg-bw/day) [8]: 0.000237

CNS(=O)(=O)CCc1ccc2[nH]cc(C3CCN(C)CC3)c2c1
maximum recommended daily dose (mmol/kg-bw/day) (TherapeuticCategory: antimigraine, vasoconstrictor): 0.000248

O=C(O)C(S)C(S)C(=O)O (configuration not stated)
maximum recommended daily dose (mmol/kg-bw/day) (TherapeuticCategory: antidote for heavy metal poisoning, radioactive imaging agent): 0.0549

CC(=O)O[C@H]1C[C@H](O[C@H]2[C@@H](O)C[C@H](O[C@H]3[C@@H](O)C[C@H](OC4CC[C@@]5(C)[C@H](CC[C@@H]6[C@@H]5CC[C@]5(C)[C@@H](C7=CC(=O)OC7)CC[C@]65O)C4)O[C@@H]3C)O[C@@H]2C)O[C@H](C)[C@H]1O[C@@H]1O[C@H](CO)[C@@H](O)[C@H](O)[C@H]1O (some centres not stated)
maximum recommended daily dose (mmol/kg-bw/day) [8]: 3.44e-05

N[C@@H](Cc1cnc[nH]1)C(=O)O
maximum recommended daily dose (mmol/kg-bw/day) (TherapeuticCategory: none): 0.645

CN[C@@H]1[C@H](O[C@H]2[C@H](O[C@H]3[C@H](O)[C@@H](O)[C@H](N=C(N)N)[C@@H](O)[C@@H]3N=C(N)N)O[C@@H](C)[C@]2(O)C=O)O[C@@H](CO)[C@H](O[C@@H]2O[C@H](CO)[C@@H](O)[C@H](O)[C@@H]2O)[C@H]1O
maximum recommended daily dose (mmol/kg-bw/day) [3]: 0.0269

CC(=O)O[C@H]1C[C@H](O[C@H]2[C@@H](O)C[C@H](O[C@H]3[C@@H](O)C[C@H](OC4CC[C@@]5(C)C(CC[C@@H]6[C@@H]5CC[C@]5(C)[C@@H](C7=CC(=O)OC7)[C@@H](O)C[C@]65O)C4)O[C@@H]3C)O[C@@H]2C)O[C@H](C)[C@H]1O[C@@H]1O[C@H](CO)[C@@H](O)[C@H](O)[C@H]1O (some centres not stated)
maximum recommended daily dose (mmol/kg-bw/day) [8]: 3.38e-05

CCCC(=O)Nc1c(I)cc(I)c(CC(CC)C(=O)O)c1I (configuration not stated)
maximum recommended daily dose (mmol/kg-bw/day) [9]: 0.0754

Cc1cc(C(=O)NCCc2ccc(S(=O)(=O)NC(=O)NN3CCCCCC3)cc2)no1
maximum recommended daily dose (mmol/kg-bw/day) [10]: 0.000594

CN1Cc2c(N)cccc2C(c2ccccc2)C1 (configuration not stated)
maximum recommended daily dose (mmol/kg-bw/day) [11]: 0.014

N[C@@H](CCC(=O)N[C@@H](CS)C(=O)NCC(=O)O)C(=O)O
maximum recommended daily dose (mmol/kg-bw/day) (TherapeuticCategory: none): 0.0163

CN(C)CCOC(c1ccccc1)c1ccc(Br)cc1 (configuration not stated)
maximum recommended daily dose (mmol/kg-bw/day) [12]: 0.00748

CN=C(NC#N)NCCSCc1nc[nH]c1C
maximum recommended daily dose (mmol/kg-bw/day) (TherapeuticCategory: antiulcerative): 0.159

O=C1C(CCS(=O)c2ccccc2)C(=O)N(c2ccccc2)N1c1ccccc1 (configuration not stated)
maximum recommended daily dose (mmol/kg-bw/day) (TherapeuticCategory: uricosuric): 0.0329

CCc1nn(CCCN2CCN(c3cccc(Cl)c3)CC2)c(=O)n1CC
maximum recommended daily dose (mmol/kg-bw/day) [11]: 0.00662

COc1ccc(CC2c3cc(OC)c(OC)cc3CC[N+]2(C)CCC(=O)OCCCCCOC(=O)CC[N+]2(C)CCc3cc(OC)c(OC)cc3C2Cc2ccc(OC)c(OC)c2)cc1OC (configuration not stated)
maximum recommended daily dose (mmol/kg-bw/day) [7]: 0.000402

Clc1ccc2nsnc2c1NC1=NCCN1
maximum recommended daily dose (mmol/kg-bw/day) [7]: 0.00236

CCC1C(=O)OCC1Cc1cncn1C (configuration not stated)
maximum recommended daily dose (mmol/kg-bw/day) (TherapeuticCategory: antiglaucoma, miotic): 0.0024

OCCN(CCO)CCO
maximum recommended daily dose (mmol/kg-bw/day) (TherapeuticCategory: analgesic): 0.067

CC(=O)OCC(=O)[C@@]1(O)[C@H](C)C[C@H]2[C@@H]3C[C@H](F)C4=CC(=O)C=C[C@]4(C)[C@H]3[C@@H](O)C[C@@]21C
maximum recommended daily dose (mmol/kg-bw/day) (TherapeuticCategory: glucocorticoid): 0.000921

CN1C(=O)CC(C)(c2ccccc2)C1=O (configuration not stated)
maximum recommended daily dose (mmol/kg-bw/day) (TherapeuticCategory: anticonvulsant): 0.0984

CN(C)CCOc1ccccc1Cc1ccccc1
maximum recommended daily dose (mmol/kg-bw/day) [12]: 0.013

CCCC(C)(COC(N)=O)COC(N)=O
maximum recommended daily dose (mmol/kg-bw/day) [6]: 0.183

CCN(CC)CCCC(C)Nc1c2ccc(Cl)cc2nc2ccc(OC)cc12 (configuration not stated)
maximum recommended daily dose (mmol/kg-bw/day) (TherapeuticCategory: antithelmintic, antimalarial): 0.0125

NCCC[C@H](N)CC(=O)N[C@H]1CNC(=O)[C@H]([C@H]2C[C@H](O)NC(N)=N2)NC(=O)/C(=C/NC(N)=O)NC(=O)[C@H](CO)NC(=O)[C@H](CO)NC1=O (β3hOrn-[Dap]SS[ΔAla(Z-3-ureido)][X1]; lactam 1-C)
maximum recommended daily dose (mmol/kg-bw/day) [3]: 0.0973

NS(=O)(=O)c1cc2c(cc1Cl)NC(C1CC3C=CC1C3)NS2(=O)=O (configuration not stated)
maximum recommended daily dose (mmol/kg-bw/day) [13]: 0.000256

CCC(=O)O[C@@](Cc1ccccc1)(c1ccccc1)[C@@H](C)CN(C)C
maximum recommended daily dose (mmol/kg-bw/day) (TherapeuticCategory: antitussive): 0.00492

CC(C)CC1Nc2cc(Cl)c(S(N)(=O)=O)cc2S(=O)(=O)N1 (configuration not stated)
maximum recommended daily dose (mmol/kg-bw/day) [13]: 0.000707

N[C@@H](Cc1ccc(O)cc1)C(=O)O
maximum recommended daily dose (mmol/kg-bw/day) (TherapeuticCategory: none): 0.552

C#C[C@]1(O)CC[C@H]2[C@@H]3CCC4=CC(=O)CCC4=C3C=C[C@@]21CC
maximum recommended daily dose (mmol/kg-bw/day) (TherapeuticCategory: antigonadotropin): 0.000135

O=C1O[C@H]([C@@H](O)CO)C(O)=C1O
maximum recommended daily dose (mmol/kg-bw/day) (TherapeuticCategory: vitamin C deficiency): 0.568

COC(=O)Nc1nc2ccc(C(=O)c3ccc(F)cc3)cc2[nH]1
maximum recommended daily dose (mmol/kg-bw/day) (TherapeuticCategory: anthelmintic): 0.00533

CCOC(=O)CCCCCCCCC(C)c1ccccc1I (configuration not stated)
maximum recommended daily dose (mmol/kg-bw/day) [9]: 0.3

CCN(C(C)=O)c1cccc(-c2ccnc3c(C#N)cnn23)c1
maximum recommended daily dose (mmol/kg-bw/day) (TherapeuticCategory: hypnotic, sedative): 0.00164

Nc1nc(F)nc2c1ncn2[C@@H]1O[C@H](COP(=O)(O)O)[C@@H](O)[C@@H]1O
maximum recommended daily dose (mmol/kg-bw/day) [2]: 0.00185

CC1(C)S[C@@H]2[C@H](NC(=O)C3(N)CCCCC3)C(=O)N2[C@H]1C(=O)O
maximum recommended daily dose (mmol/kg-bw/day) [3]: 0.0975

NC[C@H]1O[C@H](O[C@H]2[C@H](O)[C@@H](O[C@H]3O[C@H](CO)[C@@H](O)[C@H](N)[C@H]3O)[C@H](N)C[C@@H]2N)[C@H](N)C[C@@H]1O
maximum recommended daily dose (mmol/kg-bw/day) [3]: 0.0193

C#C[C@]1(O)CC[C@H]2[C@@H]3CCC4=CC(=O)CC[C@@H]4[C@H]3CC[C@@]21C
maximum recommended daily dose (mmol/kg-bw/day) [4]: 5.6e-05

Cn1cnc([N+](=O)[O-])c1Sc1ncnc2nc[nH]c12
maximum recommended daily dose (mmol/kg-bw/day) (TherapeuticCategory: immunosuppressant, antirheumatic): 0.018

CN(C)C(=N)N=C(N)N
maximum recommended daily dose (mmol/kg-bw/day) [10]: 0.387

C[C@]1(Cn2ccnn2)[C@H](C(=O)O)N2C(=O)C[C@H]2S1(=O)=O
maximum recommended daily dose (mmol/kg-bw/day) [3]: 0.0833

Cc1cc(=O)[nH]c(=S)[nH]1
maximum recommended daily dose (mmol/kg-bw/day) (TherapeuticCategory: thyroid inhibitor): 0.0703

NCCCC[C@H](N)C(=O)O
maximum recommended daily dose (mmol/kg-bw/day) (TherapeuticCategory: nutrient): 0.684

CCOC(=O)C(C)(C)Oc1ccc(Cl)cc1
maximum recommended daily dose (mmol/kg-bw/day) (TherapeuticCategory: antihyperlipoproteinemic): 0.137

Cc1ncc(CO)c(CO)c1O
maximum recommended daily dose (mmol/kg-bw/day) (TherapeuticCategory: enzyme cofactor vitamin): 0.0394
